Tests used:
Format in all cases: in vivo
[1] = tested on: Echinochloa crus-galli var. formosensis; experiment: Test Example 1: herbicidal effect test by soil application in paddy rice; conditions: 120 g active ingredient per 10 ares, applied immediately after sowing, flooded pots, 14 days after application; for pest or weed control at 1200 g/ha: Echinochloa crus-galli, soil, 336 h, read-out: weed inhibition rate
Procedure, shortened: (§1)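 Soil-applied test under flooded paddy conditions (~3 cm water) in a glass greenhouse. Seeds were sown shallow (0–1 cm, 30 per species), then compound was dripped in as diluted emulsifiable concentrate at 120 g a.i./10 a.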

[2] = tested on: Scirpus juncoides; experiment: as above; conditions: 120 g active ingredient per 10 ares, applied immediately after sowing, flooded pots, 14 days after application; for pest or weed control at 1200 g/ha: Schoenoplectiella juncoides, soil, 336 h, read-out: weed inhibition rate
Procedure, shortened: as §1

[3] = tested on: Echinochloa crus-galli var. formosensis; experiment: Test Example 2: herbicidal effect test by application during growth period of paddy rice; conditions: 120 g per 10 ares, applied seven days after sowing, flooded pots, 14 days after application; for inhibition at 1200 g/ha: Echinochloa crus-galli, read-out: weed inhibition rate
Procedure, shortened: (§2)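 Herbicidal effect was scored 14 days after treatment, in duplicate per concentration. Weeds sown 0–1 cm deep in puddled, fertilized paddy soil under about 3 cm of standing water received a water-diluted emulsifiable concentrate by dropper 7 days post-sowing, at 120 g a.i. per 10 ares.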

[4] = tested on: Scirpus juncoides; experiment: as above; conditions: 120 g per 10 ares, applied seven days after sowing, flooded pots, 14 days after application; for inhibition at 1200 g/ha: Schoenoplectiella juncoides, read-out: weed inhibition rate
Procedure, shortened: as §2

[5] = tested on: Digitaria ciliaris; experiment: Test Example 3: herbicidal effect test by soil application in upland field; conditions: 120 g per 10 ares, sprayed one day after sowing, 14 days after application; for inhibition at 1200 g/ha: Digitaria ciliaris, read-out: weed inhibition rate
Procedure, shortened: (§3)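 Pre-emergence test: seeds mixed into top 1 cm of alluvial loam upland soil in pots; emulsifiable concentrate diluted in water sprayed on soil one day after sowing at 100 L/10 a, 120 g a.i./10 a. Weed inhibition rate (%) scored at 14 days, in duplicate.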

[6] = tested on: Echinochloa crus-galli; experiment: as above; conditions: 120 g per 10 ares, sprayed one day after sowing, 14 days after application; for inhibition at 1200 g/ha: Echinochloa crus-galli, read-out: weed inhibition rate
Procedure, shortened: as §3

[7] = tested on: Digitaria ciliaris; experiment: Test Example 4: herbicidal effect test by stem and leaf treatment in upland field; conditions: 120 g per 10 ares, sprayed seven days after sowing, upland soil, 14 days after application; for inhibition at 1200 g/ha: Digitaria ciliaris, read-out: weed inhibition rate
[8] = tested on: Echinochloa crus-galli; experiment: as above; conditions: 120 g per 10 ares, sprayed seven days after sowing, upland soil, 14 days after application; for inhibition at 1200 g/ha: Echinochloa crus-galli, read-out: weed inhibition rate
[9] = tested on: Echinochloa crus-galli var. formosensis; experiment: Test Example 5: herbicidal effect test by soil application in paddy rice (low dose); conditions: 7.5 g per 10 ares, applied immediately after sowing, flooded pots, 14 days after application; for inhibition at 75 g/ha: Echinochloa crus-galli, soil, 336 h, read-out: weed inhibition rate
Procedure, shortened: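 Dose of 7.5 g a.i. per 10 ares, applied by dropper as diluted emulsifiable concentrate to flooded (~3 cm) paddy pots immediately after sowing seeds at 0–1 cm. Kept in a glass greenhouse; duplicate pots rated at 14 days post-application.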

[10] = tested on: Echinochloa crus-galli var. formosensis; experiment: Test Example 6: herbicidal effect test by application during growth period of paddy rice (low dose); conditions: 7.5 g per 10 ares, applied seven days after sowing, flooded pots, 14 days after application; for inhibition at 75 g/ha: Echinochloa crus-galli, read-out: weed inhibition rate
Procedure, shortened: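 Paddy soil in flooded Wagner pots (about 3 cm water), weeds sown at 0–1 cm, 30 seeds each, grown in a glass greenhouse. Seven days after sowing, water-diluted emulsifiable concentrate was dropped into the water at 7.5 g active ingredient per 10 ares. Weed inhibition rate (%) was scored 14 days after application, in duplicate.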

[11] = tested on: Digitaria ciliaris; experiment: Test Example 7: herbicidal effect test by soil application in upland field (low dose); conditions: 7.5 g per 10 ares, sprayed one day after sowing, 14 days after application; for inhibition at 75 g/ha: Digitaria ciliaris, read-out: weed inhibition rate
Procedure, shortened: (§4)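 Pre-emergence soil treatment: 7.5 g a.i. per 10 a applied as water-diluted emulsifiable concentrate (100 L/10 a) to soil surface one day post-sowing in alluvial loam. Inhibition (%) assessed at 14 days, duplicate pots per concentration.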

[12] = tested on: Echinochloa crus-galli; experiment: as above; conditions: 7.5 g per 10 ares, sprayed one day after sowing, 14 days after application; for inhibition at 75 g/ha: Echinochloa crus-galli, read-out: weed inhibition rate
Procedure, shortened: as §4

[13] = tested on: Digitaria ciliaris; experiment: Test Example 8: herbicidal effect test by stem and leaf treatment in upland field (low dose); conditions: 7.5 g per 10 ares, sprayed seven days after sowing, upland soil, 14 days after application; for inhibition at 75 g/ha: Digitaria ciliaris, read-out: weed inhibition rate
[14] = tested on: Echinochloa crus-galli; experiment: as above; conditions: 7.5 g per 10 ares, sprayed seven days after sowing, upland soil, 14 days after application; for inhibition at 75 g/ha: Echinochloa crus-galli, read-out: weed inhibition rate

CC(C)[C@]12C[C@@H](OCc3ccccc3I)[C@](C)(C[C@@H]1I)O2 [1-762, (1R,2S,4S,5R)-2-iodo-5-[(2-iodophenyl)methoxy]-1-isopropyl-4-methyl-7-oxabicyclo[2.2.1]heptane]
≥ 80%: pest or weed control at 1200 g/ha [1] | pest or weed control at 1200 g/ha [2] | inhibition at 1200 g/ha [3] | inhibition at 1200 g/ha [4] | inhibition at 1200 g/ha [5] | inhibition at 1200 g/ha [6] | inhibition at 1200 g/ha [7] | inhibition at 1200 g/ha [8] | inhibition at 75 g/ha [9] | inhibition at 75 g/ha [10] | inhibition at 75 g/ha [11] | inhibition at 75 g/ha [12] | inhibition at 75 g/ha [13] | inhibition at 75 g/ha [14]

CC(C)[C@]12C[C@@H](OCc3ccccc3C#N)[C@](C)(C[C@@H]1I)O2 [1-768, 2-[[(l S,2R,4R,5S)-5-iodo-4-isopropyl-l-methyl-7-oxabicyclo[2.2.1]heptan-2-yl]oxymethyl]benzonitrile]
≥ 80%: weed inhibition rate [1] | weed inhibition rate [2] | weed inhibition rate [3] | weed inhibition rate [4] | weed inhibition rate [5] | weed inhibition rate [6] | weed inhibition rate [7] | weed inhibition rate [8] | weed inhibition rate [9] | weed inhibition rate [10] | weed inhibition rate [11] | weed inhibition rate [12] | weed inhibition rate [13] | weed inhibition rate [14]

Cc1cccc(C)c1CO[C@@H]1C[C@]2(C(C)C)O[C@@]1(C)C[C@@H]2I [1-777, (1R,2S,4S,5R)-5-[(2,6-dimethylphenyl)methoxy]-2-iodo-1-isopropyl-4-methyl-7-oxabicyclo[2.2.1]heptane]
≥ 80%: pest or weed control at 1200 g/ha [1] | pest or weed control at 1200 g/ha [2] | inhibition at 1200 g/ha [3] | inhibition at 1200 g/ha [4] | inhibition at 1200 g/ha [5] | inhibition at 1200 g/ha [6] | inhibition at 1200 g/ha [7] | inhibition at 1200 g/ha [8] | inhibition at 75 g/ha [9] | inhibition at 75 g/ha [10] | inhibition at 75 g/ha [11] | inhibition at 75 g/ha [12] | inhibition at 75 g/ha [13] | inhibition at 75 g/ha [14]

CC(C)[C@]12C[C@@H](OCc3c(F)cccc3F)[C@](C)(C[C@@H]1I)O2 [1-778, (1R,2S,4S,5R)-5-[(2,6-difluorophenyl)methoxy]-2-iodo-1-isopropyl-4-methyl-7-oxabicyclo[2.2.1]heptane]
≥ 80%: pest or weed control at 1200 g/ha [1] | pest or weed control at 1200 g/ha [2] | inhibition at 1200 g/ha [3] | inhibition at 1200 g/ha [4] | inhibition at 1200 g/ha [5] | inhibition at 1200 g/ha [6] | inhibition at 1200 g/ha [7] | inhibition at 1200 g/ha [8] | inhibition at 75 g/ha [9] | inhibition at 75 g/ha [10] | inhibition at 75 g/ha [11] | inhibition at 75 g/ha [12] | inhibition at 75 g/ha [13] | inhibition at 75 g/ha [14]

CC(C)[C@]12C[C@@H](OCc3c(F)cccc3Cl)[C@](C)(C[C@@H]1I)O2 [1-780, (1R,2S,4S,5R)-5-[(2-chloro-6-fluoro-phenyl)methoxy]-2-iodo-1-isopropyl-4-methyl-7-oxabicyclo[2.2.1]heptane]
≥ 80%: pest or weed control at 1200 g/ha [1] | pest or weed control at 1200 g/ha [2] | inhibition at 1200 g/ha [3] | inhibition at 1200 g/ha [4] | inhibition at 1200 g/ha [5] | inhibition at 1200 g/ha [6] | inhibition at 1200 g/ha [7] | inhibition at 1200 g/ha [8] | inhibition at 75 g/ha [9] | inhibition at 75 g/ha [10] | inhibition at 75 g/ha [11] | inhibition at 75 g/ha [12] | inhibition at 75 g/ha [13] | inhibition at 75 g/ha [14]

CC(C)[C@]12C[C@@H](OCc3ccccn3)[C@](C)(C[C@@H]1I)O2 [1-785, 2-[[(18,2R,4R,58)-5-iodo-4-isopropyl-1-methyl-7-oxabicyclo[2.2.1]heptan-2-yl]oxymethyl]pyridine]
≥ 80%: weed inhibition rate [1] | weed inhibition rate [2] | weed inhibition rate [3] | weed inhibition rate [4] | weed inhibition rate [5] | weed inhibition rate [6] | weed inhibition rate [7] | weed inhibition rate [8] | weed inhibition rate [9] | weed inhibition rate [10] | weed inhibition rate [11] | weed inhibition rate [12] | weed inhibition rate [13] | weed inhibition rate [14]

CC(C)[C@]12C[C@@H](OCc3cccs3)[C@](C)(C[C@@H]1I)O2 [1-788, (1R,2S,4S,5R)-2-iodo-1-isopropyl-4-methyl-5-(2-thienylmethoxy)-7-oxabicyclo[2.2.1]heptane]
≥ 80%: pest or weed control at 1200 g/ha [1] | pest or weed control at 1200 g/ha [2] | inhibition at 1200 g/ha [3] | inhibition at 1200 g/ha [4] | inhibition at 1200 g/ha [5] | inhibition at 1200 g/ha [6] | inhibition at 1200 g/ha [7] | inhibition at 1200 g/ha [8] | inhibition at 75 g/ha [9] | inhibition at 75 g/ha [10] | inhibition at 75 g/ha [11] | inhibition at 75 g/ha [12] | inhibition at 75 g/ha [13] | inhibition at 75 g/ha [14]

Source: patent EP4707280A1, “1,4-CINEOLE DERIVATIVE AND INTERMEDIATE THEREOF, HERBICIDE CONTAINING SAID DERIVATIVE AS ACTIVE INGREDIENT, METHOD FOR USING HERBICIDE, AND METHOD FOR PREPARING AGROCHEMICAL COMPOSITION” (HOKKO CHEMICAL INDUSTRY CO., LTD., priority 2023, dated 2024)
